Data published in patent US12459919B2, “Polymorphic forms of (R)-4-(1-((3-(difluoromethyl)-1-methyl-1H-pyrazol-4-yl)sulfonyl)-1- fluoroethyl)-N-(isoxazol-3-yl)piperidine-1-carboxamide” (MyoKardia, Inc., priority 2019, dated 2025).

Columns and labels:
bovine cardiac myosin = bovine cardiac myosin (Bos taurus, UniProt Q9BE39); assay: Myosin activation assay (PK/LDH-coupled ATPase, skinned myofibrils); type: biochemical; settings: concentration at which total response is increased by twenty percent
Experimental: Small molecule agents were assessed for their ability to activate the enzymatic activity of bovine cardiac myosin using a biochemical assay that couples the release of ADP (adenosine diphosphate) from cardiac myosin to an enzymatic coupling system consisting of pyruvate kinase and lactate dehydrogenase (PK/LDH) and monitoring the absorbance decrease of NADH (at 340 nm) as a function of time. PK converts ADP to ATP (adenosine triphosphate) by converting PEP (phosphoenolpyruvate) to pyruvate. Pyruvate is then converted to lactate by LDH by converting NADH (nicotinamide adenine dinucleotide) to NAD (oxidized nicotinamide adenine dinucleotide). […] Prior to testing small molecule agents, the bovine myofibrils were assessed for their calcium responsiveness and the calcium concentration that achieves either a 50% (pCa50 or pCa=˜6) or <5% (pCa=10) activation of the myofibril system was chosen as the final condition for assessing the activation activity of the small molecule agents. […]
A dilution series of compound was created in DMSO such that the final desired concentration of compound would be achieved in a volume of […] with a fixed DMSO concentration of 3.3% (v/v). […] The reaction progress was followed in a PerkinElmer Envision plate reader at ambient temperature using clear bottom plates. The plate reader was configured to read absorbance at 340 nm in kinetics mode for 15 minutes. […]

[1] = system: adult rat ventricular myocytes; assay: Cardiomyocyte contractility assay (fractional shortening, IonOptix); type: cell-based; settings: 5 minutes perfusion, 1 Hz pacing
Experimental: Contractility of adult rat ventricular myocytes is determined by edge detection with an IonOptix contractility system. Aliquots of myocytes in Tyrode buffer (137 mM NaCl, 3.7 mM KCl, 0.5 mM MgCl2, 1.5 mM CaCl2, 4 mM HEPES, 11 mM glucose) are placed in a perfusion chamber (Series 20 RC-27NE; Warner Instruments), allowed to adhere to the coverslip, and then perfused with 37° C. Tyrode buffer. Myocytes are filed stimulated at 1 Hz and 10V. Only myocytes with clear striations, quiescent prior to pacing, with a cell length of 120-180 microns, a basal fractional shortening equal to 3-8% of the cell length, and a contraction velocity greater than 100 microns per second are used for contractility experiments. To determine the response to compounds, myocytes are first perfused for 60 seconds with Tyrodes buffer followed by 5 minutes of compound and a 140 second washout with Tyrodes buffer. Data is continuously recorded using IonOptix software. Contractility data is analyzed using Ionwizard software (IonOptix). For each cell, 10-20 contractility transients were averaged and compared under basal (no compound) and compound-treated conditions. Compound activity is measured by effects on fractional shortening (FS), where fractional shortening is the ratio of the peak length of the cell at contraction divided by the basal cell length normalized to 100% for an untreated cell.

[2] = DVS isotherm (hygroscopicity); type: physicochemical
[3] = Polymorph relative stability, interconversion slurring experiments; type: physicochemical

Sequence of bovine cardiac myosin (Q9BE39 whole entry): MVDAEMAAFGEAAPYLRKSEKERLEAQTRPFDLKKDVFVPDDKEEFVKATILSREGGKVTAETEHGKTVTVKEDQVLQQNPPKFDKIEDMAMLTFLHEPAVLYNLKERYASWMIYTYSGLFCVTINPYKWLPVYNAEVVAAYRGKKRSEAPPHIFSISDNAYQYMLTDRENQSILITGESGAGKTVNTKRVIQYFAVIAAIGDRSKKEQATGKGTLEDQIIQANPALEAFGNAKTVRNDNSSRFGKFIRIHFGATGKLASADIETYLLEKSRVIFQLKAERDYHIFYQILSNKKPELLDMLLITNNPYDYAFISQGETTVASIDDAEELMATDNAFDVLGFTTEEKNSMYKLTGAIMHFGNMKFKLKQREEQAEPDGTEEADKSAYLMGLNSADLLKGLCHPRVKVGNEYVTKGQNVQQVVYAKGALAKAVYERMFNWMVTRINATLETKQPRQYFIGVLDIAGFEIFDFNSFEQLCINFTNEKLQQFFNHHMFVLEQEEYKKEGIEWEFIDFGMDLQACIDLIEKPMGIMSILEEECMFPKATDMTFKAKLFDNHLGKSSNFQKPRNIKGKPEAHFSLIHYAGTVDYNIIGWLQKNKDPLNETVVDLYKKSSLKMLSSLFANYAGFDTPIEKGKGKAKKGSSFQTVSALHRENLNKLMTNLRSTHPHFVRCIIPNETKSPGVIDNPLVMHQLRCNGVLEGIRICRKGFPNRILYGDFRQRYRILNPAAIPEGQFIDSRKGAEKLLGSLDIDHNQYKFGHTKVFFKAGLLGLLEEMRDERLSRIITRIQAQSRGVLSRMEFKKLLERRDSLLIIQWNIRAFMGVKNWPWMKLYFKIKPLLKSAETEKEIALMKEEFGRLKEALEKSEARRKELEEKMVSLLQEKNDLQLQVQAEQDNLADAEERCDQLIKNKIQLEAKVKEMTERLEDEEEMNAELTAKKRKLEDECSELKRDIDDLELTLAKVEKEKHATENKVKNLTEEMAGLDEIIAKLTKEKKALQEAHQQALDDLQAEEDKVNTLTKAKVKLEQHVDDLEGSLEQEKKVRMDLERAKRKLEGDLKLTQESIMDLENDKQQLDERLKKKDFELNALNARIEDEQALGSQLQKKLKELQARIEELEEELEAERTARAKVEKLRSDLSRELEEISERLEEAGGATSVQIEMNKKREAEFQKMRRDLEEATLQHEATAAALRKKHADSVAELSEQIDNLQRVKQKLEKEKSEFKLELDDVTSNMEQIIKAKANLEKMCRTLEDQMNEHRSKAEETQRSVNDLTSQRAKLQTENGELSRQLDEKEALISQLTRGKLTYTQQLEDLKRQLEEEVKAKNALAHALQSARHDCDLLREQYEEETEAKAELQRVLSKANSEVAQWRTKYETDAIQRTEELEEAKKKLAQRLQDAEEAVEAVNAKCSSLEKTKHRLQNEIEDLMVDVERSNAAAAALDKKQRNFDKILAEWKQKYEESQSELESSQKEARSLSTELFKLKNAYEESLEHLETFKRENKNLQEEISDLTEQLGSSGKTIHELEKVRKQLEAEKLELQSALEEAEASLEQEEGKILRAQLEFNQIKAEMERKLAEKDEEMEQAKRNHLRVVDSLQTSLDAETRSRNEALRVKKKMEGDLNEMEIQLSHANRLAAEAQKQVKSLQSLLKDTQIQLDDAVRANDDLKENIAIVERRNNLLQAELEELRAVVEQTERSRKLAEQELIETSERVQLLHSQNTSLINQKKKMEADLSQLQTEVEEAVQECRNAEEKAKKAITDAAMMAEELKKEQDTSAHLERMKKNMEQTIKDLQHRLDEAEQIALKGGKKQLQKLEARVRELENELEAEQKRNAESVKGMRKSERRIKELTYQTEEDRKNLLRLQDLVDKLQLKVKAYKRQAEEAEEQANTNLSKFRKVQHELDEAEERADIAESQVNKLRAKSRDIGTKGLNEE
Sequence of bovine cardiac myosin (P85100 whole entry partner): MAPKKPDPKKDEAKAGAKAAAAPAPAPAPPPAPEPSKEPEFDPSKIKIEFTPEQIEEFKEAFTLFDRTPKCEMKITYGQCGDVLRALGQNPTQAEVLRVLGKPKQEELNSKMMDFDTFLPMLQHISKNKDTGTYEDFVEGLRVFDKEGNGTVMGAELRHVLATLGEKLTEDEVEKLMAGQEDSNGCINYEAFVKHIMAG
Sequence of bovine cardiac myosin (Q3SZE5 whole entry partner): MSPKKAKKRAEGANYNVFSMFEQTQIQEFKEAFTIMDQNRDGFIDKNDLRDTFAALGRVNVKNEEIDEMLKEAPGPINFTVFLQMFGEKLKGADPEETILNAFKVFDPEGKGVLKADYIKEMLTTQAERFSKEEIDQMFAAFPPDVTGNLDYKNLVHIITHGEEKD

Row | Hygroscopic character (DVS isotherm) [2] | Relative stability of polymorphs ([3]; 1:1 (w/w) forms A+εD and B slurried 18 hours in acetonitrile and water mixture, range of RT to 70° C.) | Polymorph stability ranking ([3]; compared to Form A, Form C, and Form D) | Structure (SMILES) | Myosin Activation (AC20) (bovine cardiac myosin) | Activity at 3.0 uM (fractional shortening activation over basal) ([1]; 3.0 uM compound) | Activity at 10 uM (fractional shortening activation over basal) ([1]; 10 uM compound)
1 | non-hygroscopic |  |  | Cn1cc(S(=O)(=O)[C@@](C)(F)C2CCN(C(=O)Nc3ccon3)CC2)c(C(F)F)n1 [Form A, (R)-4-(1-((3-(difluoromethyl)-1-methyl-1H-pyrazol-4-yl)sulfonyl)-1-fluoroethyl)-N-(isoxazol-3-yl)piperidine-1-carboxamide] | +++ (myosin activation value AC20 < 2 μM) | + (fractional shorting activation <20% over basal) | ++ (fractional shorting activation values from 20% to 50% over basal)
2 | nonhygroscopic | more stable compared to Form A | most stable polymorph | Cn1cc(S(=O)(=O)[C@@](C)(F)C2CCN(C(=O)Nc3ccon3)CC2)c(C(F)F)n1 [Form B, (R)-4-(1-((3-(difluoromethyl)-1-methyl-1H-pyrazol-4-yl)sulfonyl)-1-fluoroethyl)-N-(isoxazol-3-yl)piperidine-1-carboxamide] |  |  | 
